Columns and labels:
pigweed, palmer [1] = test: Test C preemergence; assay type: in vivo, Amaranthus palmeri; conditions: 0 to 100 scale (0 no effect, 100 complete control); for Pigweed, Palmer plant response rating: preemergence
Outline: (§1)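 Seeds sown in loam soil–sand blend received a directed preemergence soil spray of test chemical in non-phytotoxic solvent with surfactant; postemergence plants (2–10 cm, one- to two-leaf stage) were sprayed with the same formulation. Greenhouse-held 10 days, then visually rated for injury versus untreated controls, 0 (no effect) to 100 (complete control).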

galium = test: Test C postemergence; assay type: in vivo, Galium aparine; conditions: 10 days
Outline: as §1

oat, wild [2] = test: Test C postemergence; assay type: in vivo, Avena fatua; conditions: 10 days
Outline: as §1

barnyardgrass [3] = test: Test C postemergence; assay type: in vivo, Echinochloa crusgalli; conditions: 10 days
Outline: as §1

oat, wild [4] = test: Test C preemergence; assay type: in vivo, Avena fatua; conditions: 0 to 100 scale (0 no effect, 100 complete control); for Oat, Wild plant response rating: preemergence
Outline: as §1

green foxtail [5] = test: Test C postemergence; assay type: in vivo, Setaria viridis; conditions: 10 days
Outline: as §1

sedge, umbrella = test: Test D flooded paddy test; assay type: in vivo, Cyperus difformis; conditions: 250 g ai/ha, applied to paddy water, visual rating after 13 to 14 days, scale 0 to 100 (0 no effect, 100 complete control)
Outline: (§2)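 At the 2-leaf stage, floodwater 3 cm deep received the test compound; that depth persisted throughout. Plants scored visually 13 to 14 days on, 0 (no effect) to 100 (complete control), dash indicating no result.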

green foxtail [6] = test: Test C preemergence; assay type: in vivo, Setaria viridis; conditions: 0 to 100 scale (0 no effect, 100 complete control); for Foxtail, Green plant response rating: preemergence
Outline: as §1

wheat [7] = test: Test C preemergence; assay type: in vivo, Triticum aestivum; conditions: 0 to 100 scale (0 no effect, 100 complete control); for Wheat plant response rating: preemergence
Outline: as §1

pigweed, palmer [8] = test: Test C postemergence; assay type: in vivo, Amaranthus palmeri; conditions: 10 days
Outline: as §1

wheat [9] = test: Test C postemergence; assay type: in vivo, Triticum aestivum; conditions: 10 days
Outline: as §1

ryegrass, Italian [10] = test: Test C postemergence; assay type: in vivo, Lolium multiflorum; conditions: 10 days
Outline: as §1

soybean [11] = test: Test C preemergence; assay type: in vivo, Glycine max; conditions: 0 to 100 scale (0 no effect, 100 complete control); for Soybean plant response rating: preemergence
Outline: as §1

corn [12] = test: Test C postemergence; assay type: in vivo, Zea mays; conditions: 10 days
Outline: as §1

rice = test: Test D flooded paddy test; assay type: in vivo, Oryza sativa; conditions: 250 g ai/ha, applied to paddy water, visual rating after 13 to 14 days, scale 0 to 100 (0 no effect, 100 complete control)
Outline: as §2

ducksalad = test: Test D flooded paddy test; assay type: in vivo, Heteranthera limosa; conditions: 250 g ai/ha, applied to paddy water, visual rating after 13 to 14 days, scale 0 to 100 (0 no effect, 100 complete control)
Outline: as §2

soybean [13] = test: Test C postemergence; assay type: in vivo, Glycine max; conditions: 10 days
Outline: as §1

ragweed [14] = test: Test C preemergence; assay type: in vivo, Ambrosia artemisiifolia; conditions: 0 to 100 scale (0 no effect, 100 complete control); for Ragweed plant response rating: preemergence
Outline: as §1

ragweed [15] = test: Test C postemergence; assay type: in vivo, Ambrosia artemisiifolia; conditions: 10 days
Outline: as §1

ryegrass, Italian [16] = test: Test C preemergence; assay type: in vivo, Lolium multiflorum; conditions: 0 to 100 scale (0 no effect, 100 complete control); for Ryegrass, Italian plant response rating: preemergence
Outline: as §1

blackgrass [17] = test: Test C preemergence; assay type: in vivo, Alopecurus myosuroides; conditions: 0 to 100 scale (0 no effect, 100 complete control); for Plant response rating, Blackgrass: Preemergence, 500 g ai/ha, visual rating after 10 days; for Blackgrass plant response rating: Test C, preemergence, 125 g ai/ha
Outline: as §1

corn [18] = test: Test C preemergence; assay type: in vivo, Zea mays; conditions: 0 to 100 scale (0 no effect, 100 complete control); for Corn plant response rating: preemergence
Outline: as §1

horseweed = test: Test C postemergence; assay type: in vivo, Erigeron canadensis; conditions: 10 days
Outline: as §1

barnyardgrass [19] = test: Test C preemergence; assay type: in vivo, Echinochloa crusgalli; conditions: 0 to 100 scale (0 no effect, 100 complete control); for Plant response rating, Barnyardgrass: Preemergence, 500 g ai/ha, visual rating after 10 days; for Barnyardgrass plant response rating: Test C, preemergence, 125 g ai/ha
Outline: as §1

blackgrass [20] = test: Test C postemergence; assay type: in vivo, Alopecurus myosuroides; conditions: 10 days
Outline: as §1

kochia [21] = test: Test C preemergence; assay type: in vivo, Bassia scoparia; conditions: 0 to 100 scale (0 no effect, 100 complete control); for Kochia plant response rating: preemergence
Outline: as §1

kochia [22] = test: Test C postemergence; assay type: in vivo, Bassia scoparia; conditions: 10 days
Outline: as §1

barnyardgrass [23] = test: Test D flooded paddy test; assay type: in vivo, Echinochloa crus-galli; conditions: 250 g ai/ha, applied to paddy water, visual rating after 13 to 14 days, scale 0 to 100 (0 no effect, 100 complete control)
Outline: as §2

[24] = Preemergence, 500 g ai/ha, visual rating after 10 days
[25] = 125 g ai/ha, postemergence, 0 to 100 scale, 0 no effect, 100 complete control
[26] = Postemergence, 500 g ai/ha, visual 0 to 100 scale (0 no effect, 100 complete control)

CC(C)=C(C)c1ncn(-c2cccc(C(=O)N3C[C@H](C)Oc4c(C)cccc43)c2)n1 [Compound 262]
Plant response rating, Pigweed, Palmer (pigweed, palmer [1]; [24]): 90 | Pigweed, Palmer plant response rating (pigweed, palmer [1]; Test C, 125 g ai/ha): 70 | Plant response rating, Galium (galium; [25]): 100 | Plant response rating, Galium (galium; [26]): 100 | Plant response rating, Oat, Wild (oat, wild [2]; [25]): 60 | Plant response rating, Oat, Wild (oat, wild [2]; [26]): 80 | Plant response rating, Barnyardgrass (barnyardgrass [3]; [25]): 60 | Plant response rating, Barnyardgrass (barnyardgrass [3]; [26]): 90 | Plant response rating, Oat, Wild (oat, wild [4]; [24]): 80 | Oat, Wild plant response rating (oat, wild [4]; Test C, 125 g ai/ha): 50 | Plant response rating, Foxtail, Green (green foxtail [5]; [25]): 70 | Plant response rating, Foxtail, Green (green foxtail [5]; [26]): 90 | Plant response rating, Sedge, Umbrella (Flood) (sedge, umbrella): 0 | Plant response rating, Foxtail, Green (green foxtail [6]; [24]): 100 | Foxtail, Green plant response rating (green foxtail [6]; Test C, 125 g ai/ha): 100 | Plant response rating, Wheat (wheat [7]; [24]): 70 | Wheat plant response rating (wheat [7]; Test C, 125 g ai/ha): 20 | Plant response rating, Pigweed, Palmer (pigweed, palmer [8]; [25]): 70 | Plant response rating, Pigweed, Palmer (pigweed, palmer [8]; [26]): 90 | Plant response rating, Wheat (wheat [9]; [25]): 30 | Plant response rating, Wheat (wheat [9]; [26]): 50 | Plant response rating, Ryegrass, Italian (ryegrass, Italian [10]; [25]): 80 | Plant response rating, Ryegrass, Italian (ryegrass, Italian [10]; [26]): 90 | Plant response rating, Soybean (soybean [11]; [24]): 70 | Soybean plant response rating (soybean [11]; Test C, 125 g ai/ha): 30 | Plant response rating, Corn (corn [12]; [25]): 60 | Plant response rating, Corn (corn [12]; [26]): 80 | Plant response rating, Rice (Flood) (rice): 0 | Plant response rating, Ducksalad (Flood) (ducksalad): 0 | Plant response rating, Soybean (soybean [13]; [25]): 100 | Plant response rating, Soybean (soybean [13]; [26]): 100 | Plant response rating, Ragweed (ragweed [14]; [24]): 60 | Ragweed plant response rating (ragweed [14]; Test C, 125 g ai/ha): 0 | Plant response rating, Ragweed (ragweed [15]; [25]): 40 | Plant response rating, Ragweed (ragweed [15]; [26]): 70 | Plant response rating, Ryegrass, Italian (ryegrass, Italian [16]; [24]): 90 | Ryegrass, Italian plant response rating (ryegrass, Italian [16]; Test C, 125 g ai/ha): 70 | Plant response rating, Blackgrass (blackgrass [17]): 90 | Blackgrass plant response rating (blackgrass [17]): 60 | Plant response rating, Corn (corn [18]; [24]): 40 | Corn plant response rating (corn [18]; Test C, 125 g ai/ha): 40 | Plant response rating, Horseweed (horseweed; [25]): 10 | Plant response rating, Horseweed (horseweed; [26]): 10 | Plant response rating, Barnyardgrass (barnyardgrass [19]): 90 | Barnyardgrass plant response rating (barnyardgrass [19]): 60 | Plant response rating, Blackgrass (blackgrass [20]; [26]): 90 | Plant response rating, Kochia (kochia [21]; [24]): 80 | Kochia plant response rating (kochia [21]; Test C, 125 g ai/ha): 40 | Plant response rating, Kochia (kochia [22]; [25]): 50 | Plant response rating, Kochia (kochia [22]; [26]): 90 | Plant response rating, Barnyardgrass (Flood) (barnyardgrass [23]): 0

Cc1cccc2c1O[C@@H](C)CN2C(=O)c1cccc(-n2cnc(C(C)(C)O)n2)c1 [Compound 278]
Pigweed, Palmer plant response rating (pigweed, palmer [1]; 500 g ai/ha): 100 | Pigweed, Palmer plant response rating (pigweed, palmer [1]; Test C, 125 g ai/ha): 100 | Plant response rating, Galium (galium; [25]): 100 | Plant response rating, Galium (galium; [26]): 100 | Plant response rating, Oat, Wild (oat, wild [2]; [25]): 80 | Plant response rating, Barnyardgrass (barnyardgrass [3]; [25]): 50 | Plant response rating, Barnyardgrass (barnyardgrass [3]; [26]): 90 | Oat, Wild plant response rating (oat, wild [4]; 500 g ai/ha): 90 | Oat, Wild plant response rating (oat, wild [4]; Test C, 125 g ai/ha): 80 | Plant response rating, Foxtail, Green (green foxtail [5]; [25]): 50 | Plant response rating, Foxtail, Green (green foxtail [5]; [26]): 90 | Plant response rating, Sedge, Umbrella (Flood) (sedge, umbrella): 100 | Foxtail, Green plant response rating (green foxtail [6]; 500 g ai/ha): 100 | Foxtail, Green plant response rating (green foxtail [6]; Test C, 125 g ai/ha): 100 | Wheat plant response rating (wheat [7]; 500 g ai/ha): 100 | Wheat plant response rating (wheat [7]; Test C, 125 g ai/ha): 50 | Plant response rating, Pigweed, Palmer (pigweed, palmer [8]; [25]): 50 | Plant response rating, Wheat (wheat [9]; [25]): 70 | Plant response rating, Ryegrass, Italian (ryegrass, Italian [10]; [25]): 80 | Soybean plant response rating (soybean [11]; 500 g ai/ha): 100 | Soybean plant response rating (soybean [11]; Test C, 125 g ai/ha): 90 | Plant response rating, Corn (corn [12]; [25]): 50 | Plant response rating, Corn (corn [12]; [26]): 90 | Plant response rating, Rice (Flood) (rice): 15 | Plant response rating, Ducksalad (Flood) (ducksalad): 100 | Plant response rating, Soybean (soybean [13]; [25]): 100 | Ragweed plant response rating (ragweed [14]; 500 g ai/ha): 80 | Ragweed plant response rating (ragweed [14]; Test C, 125 g ai/ha): 70 | Plant response rating, Ragweed (ragweed [15]; [25]): 70 | Ryegrass, Italian plant response rating (ryegrass, Italian [16]; 500 g ai/ha): 100 | Ryegrass, Italian plant response rating (ryegrass, Italian [16]; Test C, 125 g ai/ha): 80 | Plant response rating, Blackgrass (blackgrass [17]): 90 | Blackgrass plant response rating (blackgrass [17]): 90 | Corn plant response rating (corn [18]; 500 g ai/ha): 80 | Plant response rating, Horseweed (horseweed; [25]): 0 | Plant response rating, Horseweed (horseweed; [26]): 50 | Plant response rating, Barnyardgrass (barnyardgrass [19]): 100 | Barnyardgrass plant response rating (barnyardgrass [19]): 100 | Plant response rating, Blackgrass (blackgrass [20]; [25]): 90 | Plant response rating, Blackgrass (blackgrass [20]; [26]): 90 | Kochia plant response rating (kochia [21]; 500 g ai/ha): 100 | Kochia plant response rating (kochia [21]; Test C, 125 g ai/ha): 90 | Plant response rating, Kochia (kochia [22]; [25]): 80 | Plant response rating, Barnyardgrass (Flood) (barnyardgrass [23]): 45
